One experiment concerns the target BRAF (V600E) (Homo sapiens, UniProt P15056, V600E). Briefly: KD BRAF (V600E) (Table 1). Type of experiment: binding.
For the next experiment, the target named is BRAF (wt) (Homo sapiens, UniProt P15056). Description: KD BRAF (wt) (Table 1). It is filed as binding.
Experiment [1] has as its system P-ERK (ERK phospho-T202/Y204) in A375 cells expressing V600E mutated BRAF. Briefly: HTRF assay for P-ERK determination in A375 cells (BRAF inhibition). Type of experiment: cell-based. The conditions noted are these: Homo sapiens, A-375, P-ERK level, drug incubation 1 hour, DMSO = 100%, 10 μM Dabrafenib = 0%. From the text:
(§1) A375 is a cellular cancer model expressing V600E mutated BRAF and HCT116 a cellular cancer model expressing WT BRAF. First generation BRAF inhibitors such as e.g. dabrafenib induce a paradox effect on tumour cells in that they inhibit the growth of V600E mutated BRAF cells (such as e.g. A375), while they activate growth in WT BRAF cells (such as e.g. HCT 116). ERK 1,2 phosphorylation (terminal member of the phosphorylation cascade of the MAPK pathway) is hereafter reported as main readout for the activation status of the MAPK pathway. DMEM no-phenol red medium supplemented with L-glutamine was purchased from (Thermo Fisher Scientific). Fetal bovine serum (FBS) was purchased from VWR. Advanced ERK phospho-T202/Y204 kit—10,000 tests was purchased from Cisbio cat #64AERPEH. A375 (catalog #CRL-1619) and HCT116 (catalog #CCL-247) cells were originally obtained from American type Culture Collection (ATCC) and banked by the Roche repository. 384-Well microplates utilized were purchased from Greiner Bio-One, 384-well, (With Lid, HiBase, Low volume cat 784-080).
(§2) Prior to the assay, A375 and HCT116 cell lines are maintained in DMEM no-phenol red medium supplemented with 10% fetal bovine serum (FBS). Following compound treatment, P-ERK levels are determined by measuring FRET fluorescence signal induced by selective binding of 2 antibodies provided in the mentioned kit (Cisbio cat #64AERPEH) on ERK protein when phosphorylated at Thr202/Tyr204. Briefly, 8000 cells/well in 12 μl media/well are plated in the 384-well plate and left overnight in the incubator (at 37° C. with 5% CO2-humidified atmosphere), the following day the plate is treated in duplicate with test compounds, dabrafenib and PLX8394 (the latter two as controls) at the following final drug concentrations: 10 μM-3 μM 1 μM-0.3 μM-0.1 μM-0.03 μM-0, 01 μM-0.003 μM-0.001 μM, all wells are subjected to DMSO normalization and drug incubation occurs for 1 hour. Then, […] of a 4× lysis buffer supplied with the kit are added to the wells, the plate is then centrifuged for 30 second (3000 rpm) and incubated on a plate shaker for 1 h at rt.
(§3) At the end of the incubation 4 μL/well of advanced P-ERK antibody solution (prepared according to manufacturer's instruction) followed by 4 μL/well of criptate P-ERK antibody solution (prepared according to manufacturer's instruction) (Cisbio cat #64AERPEH) are added to test wells.
(§4) In order to allow proper data normalization control wells non drug treated reported in the following table are always included in each plate (according to manufacturer's instruction):
(§5) The plate is then centrifuged at 3000 rpm for 30 second, sealed to prevent evaporation and incubated overnight in the dark at room temperature.
(§6) The plate is then analyzed and fluorescence emission value collected through a Pherastast FSX (BMG Labtech) apparatus at […].
(§7) The obtained fluorescence values are processed according to the formula Ratio=[…]*10000 then the average of the ratio on the blank is subtracted to all values.
Data are normalized in the case of A375 cells (BRAF inhibition) considering the average of the ratio (blank subtracted) derived by DMSO only treated cells as 100% and by considering the average of the ratio (blank subtracted) derived by 10 μM Dabrafenib treated cells as 0%. Mean of the normalized points are fitted with sigmoidal curve and IC50 determined.

Experiment [2] deals with P-ERK (ERK phospho-T202/Y204) in HCT116 cells expressing WT BRAF. Description: HTRF assay for P-ERK determination in HCT116 cells (BRAF activation). It is filed as cell-based. The conditions noted are these: Homo sapiens, HCT-116, drug incubation 1 hour, concentration giving 50% of the maximum activation achieved by Dabrafenib.
From the text: as §1, §2, §3, §4, §5, §6, §7
Data are normalized in the case of HCT116 cells (BRAF activation) considering the average of the ratio (blank subtracted) derived by DMSO only treated cells as 0% and by considering the average of the ratio (blank subtracted) derived by Dabrafenib treated cells at the concentration which provides the highest signal as 100%. Individual points are fitted with either sigmoidal or bell shape curves. The EC50 is the concentration at which activation equal to 50% of the maximum activation achieved by Dabrafenib is obtained.
For orientation: In TR-FRET formats the signal depends on donor and acceptor labels being close together.

This is an account of results in patent US12570615B2, “Quinazolinone derivatives” (Hoffmann-La Roche Inc., priority 2021, dated 2026).

Chain of BRAF (V600E) (P15056 whole entry V600E): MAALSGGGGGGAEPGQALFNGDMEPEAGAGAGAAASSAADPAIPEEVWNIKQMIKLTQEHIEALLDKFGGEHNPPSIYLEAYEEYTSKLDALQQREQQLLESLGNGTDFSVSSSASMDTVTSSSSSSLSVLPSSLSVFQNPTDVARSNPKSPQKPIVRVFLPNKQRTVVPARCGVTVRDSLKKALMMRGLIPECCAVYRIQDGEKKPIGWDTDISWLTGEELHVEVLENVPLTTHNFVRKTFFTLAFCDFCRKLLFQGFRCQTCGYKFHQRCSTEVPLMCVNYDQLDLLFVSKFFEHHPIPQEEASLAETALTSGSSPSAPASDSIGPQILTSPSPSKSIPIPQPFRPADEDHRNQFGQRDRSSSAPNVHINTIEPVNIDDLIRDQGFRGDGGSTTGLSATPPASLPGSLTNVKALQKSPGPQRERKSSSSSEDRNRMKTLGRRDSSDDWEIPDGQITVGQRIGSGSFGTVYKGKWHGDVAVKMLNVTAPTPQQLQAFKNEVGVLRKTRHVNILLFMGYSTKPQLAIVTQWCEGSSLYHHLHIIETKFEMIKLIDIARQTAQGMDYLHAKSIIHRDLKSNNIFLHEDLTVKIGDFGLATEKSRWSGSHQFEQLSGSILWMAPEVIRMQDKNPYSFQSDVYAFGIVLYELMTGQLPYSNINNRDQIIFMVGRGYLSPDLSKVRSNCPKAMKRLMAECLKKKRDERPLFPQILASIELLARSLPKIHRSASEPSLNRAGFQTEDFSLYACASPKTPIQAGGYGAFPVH
Chain of BRAF (wt) (P15056 whole entry): as the sequence (P15056 whole entry V600E) above, with E600V counted along it

As to `CC(=O)N(C)CCCn1cnc2ccc(Oc3c(F)ccc(NS(=O)(=O)N4CCCC4)c3C#N)cc2c1=O` [Example 26, N-[3-[6-[2-cyano-6-fluoro-3-(pyrrolidin-1-ylsulfonylamino)phenoxy]-4-oxo-quinazolin-3-yl]propyl]-N-methyl-acetamide], the equilibrium dissociation constant (Kd) came out at 0.00055 µM on BRAF (V600E) and 0.00032 µM on BRAF (wt). Also, the midpoint of inhibition in experiment [1], the IC50, lay at 0.0205 µM. Moreover, in experiment [2], the half-maximal effective concentration (EC50) turned out to be 4.26 µM.
The like results for `CC(C)(C)OC(=O)N1CCN(CCn2cnc3ccc(Oc4c(F)ccc(NS(=O)(=O)C5CCCC5)c4C#N)cc3c2=O)CC1` [Example 25, tert-butyl 4-[2-[6-[2-cyano-3-(cyclopentylsulfonylamino)-6-fluoro-phenoxy]-4-oxo-quinazolin-3-yl]ethyl]piperazine-1-carboxylate] were, in that order, 0.00706 µM, 0.00414 µM, 0.00763 µM and 0.802 µM.
Turning to `CCN(C)S(=O)(=O)Nc1cccc(Nc2ccc3ncn(CC(=O)NCCOC)c(=O)c3c2)c1C#N` [Example 31, 2-[6-[2-cyano-3-[[ethyl(methyl)sulfamoyl]amino]anilino]-4-oxo-quinazolin-3-yl]-N-(2-methoxyethyl)acetamide], the Kd on BRAF (V600E) is 0.403 µM; on BRAF (wt), 0.137 µM. Moreover, the IC50 in experiment [1] is at least 10 µM. This molecule also yielded a concentration for a half-maximal effect (EC50) in experiment [2] of at least 10 µM.
As for `CN(Cc1ccc(CCCn2cnc3ccc(Oc4c(F)ccc(NS(=O)(=O)C5CCCC5)c4C#N)cc3c2=O)cc1)C(=O)OC(C)(C)C` [Example 28, tert-butyl N-[[4-[3-[6-[2-cyano-3-(cyclopentylsulfonylamino)-6-fluoro-phenoxy]-4-oxo-quinazolin-3-yl]propyl]phenyl]methyl]-N-methyl-carbamate], the Kd at BRAF (V600E) turned out to be 0.0337 µM; at BRAF (wt) it was 0.0196 µM. It took 0.144 µM to reach half-maximal inhibition in experiment [1] (IC50). In experiment [2], this molecule gave a concentration giving a half-maximal response (EC50) of 0.836 µM.
The matching figures for `CN(CCCn1cnc2ccc(Oc3c(F)ccc(NS(=O)(=O)N4CCCC4)c3C#N)cc2c1=O)C(=O)OC(C)(C)C` [Example 19, tert-butyl N-[3-[6-[2-cyano-6-fluoro-3-(pyrrolidin-1-ylsulfonylamino)phenoxy]-4-oxo-quinazolin-3-yl]propyl]-N-methyl-carbamate]: 0.00231 µM, 0.00093 µM, 0.103 µM and at least 10 µM.
As for `N#Cc1c(NS(=O)(=O)C2CCCC2)ccc(F)c1Oc1ccc2ncn(CCCc3ccccc3)c(=O)c2c1` [Example 11, N-[2-cyano-4-fluoro-3-[4-oxo-3-(3-phenylpropyl)quinazolin-6-yl]oxy-phenyl]cyclopentanesulfonamide], the values for the dissociation constant (Kd) on BRAF (V600E) and on BRAF (wt) were 0.0505 µM and 0.0244 µM, respectively. Further, in experiment [1], inhibition was half-maximal at 0.0525 µM (IC50). In experiment [2], this molecule gave a 50% effective concentration (EC50) of 0.908 µM.
The like results for `CN(CCCn1cnc2ccc(Oc3c(F)ccc(NS(=O)(=O)C4CCCC4)c3C#N)cc2c1=O)C(=O)OC(C)(C)C` [Example 20, tert-butyl N-[3-[6-[2-cyano-3-(cyclopentylsulfonylamino)-6-fluoro-phenoxy]-4-oxo-quinazolin-3-yl]propyl]-N-methyl-carbamate] were, in that order, 0.0092 µM, 0.00334 µM, 0.436 µM and at least 10 µM.
The like results for `CCN(C)S(=O)(=O)Nc1cccc(Nc2ccc3ncn(CC4CCN(C(C)=O)CC4)c(=O)c3c2)c1C#N` [Example 33, 3-[(1-acetyl-4-piperidyl)methyl]-6-[2-cyano-3-[[ethyl(methyl)sulfamoyl]amino]anilino]-4-oxo-quinazoline] were, in that order, 0.0929 µM, 0.0456 µM, 0.576 µM and at least 10 µM.
The matching figures for `CC(C)(C)OC(=O)NCCCn1cnc2ccc(Oc3c(F)ccc(NS(=O)(=O)C4CCCC4)c3C#N)cc2c1=O` [Example 8, tert-butyl N-[3-[6-[2-cyano-3-(cyclopentylsulfonylamino)-6-fluoro-phenoxy]-4-oxo-quinazolin-3-yl]propyl]carbamate]: 0.00783 µM, 0.00486 µM, 0.0339 µM and 2.43 µM.
`CC(C)(C)OC(=O)NCCCn1cnc2ccc(Nc3cccc(NS(=O)(=O)N4CC[C@@H](F)C4)c3C#N)cc2c1=O` [Example 43, tert-butyl N-[3-[6-[2-cyano-3-[[(3R)-3-fluoropyrrolidin-1-yl]sulfonylamino]anilino]-4-oxo-quinazolin-3-yl]propyl]carbamate]: the dissociation constant (Kd) on BRAF (V600E) amounted to 0.00718 µM; at BRAF (wt) it was 0.00447 µM. In experiment [1], this molecule registered a concentration for half-maximal inhibition (IC50) of 0.0746 µM. The concentration for a half-maximal effect (EC50) in experiment [2] came out at 5.61 µM.
The like results for `CC(C)(C)OC(=O)NCCCn1cnc2ccc(Oc3c(F)ccc(NS(=O)(=O)N4CC[C@@H](F)C4)c3C#N)cc2c1=O` [Example 4, tert-butyl N-[3-[6-[2-cyano-6-fluoro-3-[[(3R)-3-fluoropyrrolidin-1-yl]sulfonylamino]phenoxy]-4-oxo-quinazolin-3-yl]propyl]carbamate] were, in that order, 0.00275 µM, 0.00109 µM, 0.0735 µM and 7.08 µM.
For the molecule `CN(C1CC1)S(=O)(=O)Nc1cccc(Nc2ccc3ncn(CCCC(=O)OC(C)(C)C)c(=O)c3c2)c1C#N` [Example 42, tert-butyl 4-[6-[2-cyano-3-[[cyclopropyl(methyl)sulfamoyl]amino]anilino]-4-oxo-quinazolin-3-yl]butanoate], the Kd at BRAF (V600E) came out at 0.203 µM; at BRAF (wt) it was 0.0792 µM. Also, the concentration for half-maximal inhibition (IC50) in experiment [1] turned out to be 0.162 µM. Also, the 50% effective concentration (EC50) in experiment [2] stood at 6.2 µM.
The like results for `CC(C)(C)OC(=O)N1CCC(CCn2cnc3ccc(Nc4cccc(NS(=O)(=O)N5CC[C@@H](F)C5)c4C#N)cc3c2=O)CC1` [Example 37, tert-butyl 4-[2-[6-[2-cyano-3-[[(3R)-3-fluoropyrrolidin-1-yl]sulfonylamino]anilino]-4-oxo-quinazolin-3-yl]ethyl]piperidine-1-carboxylate] were, in that order, 0.0437 µM, 0.0208 µM, 0.0806 µM and 4.47 µM.
The like results for `CCN(C)S(=O)(=O)Nc1cccc(Nc2ccc3ncn(CCOCCOCCNC(=O)OC(C)(C)C)c(=O)c3c2)c1C#N` [Example 34, tert-butyl N-[2-[2-[2-[6-[2-cyano-3-[[ethyl(methyl)sulfamoyl]amino]anilino]-4-oxo-quinazolin-3-yl]ethoxy]ethoxy]ethyl]carbamate] were, in that order, 0.247 µM, 0.0919 µM, 0.287 µM and at least 10 µM.
The matching figures for `CCN(C)S(=O)(=O)Nc1ccc(F)c(Oc2ccc3ncn(CCN4CCN(C(=O)OC(C)(C)C)CC4)c(=O)c3c2)c1C#N` [Example 27, tert-butyl 4-[2-[6-[2-cyano-3-[[ethyl(methyl)sulfamoyl]amino]-6-fluoro-phenoxy]-4-oxo-quinazolin-3-yl]ethyl]piperazine-1-carboxylate]: 0.0284 µM, 0.0163 µM, 0.00699 µM and 6.86 µM.

As a reminder, the Kd is the equilibrium constant for the complex coming apart. Higher therefore signals weaker binding. As usually defined, the IC50 is the concentration needed to halve the response being measured. Read a high IC50 as weaker potency. A word on the EC50: it is the concentration giving half of the maximal effect. Lower therefore signals an effect from little substance.
